Laboratory results as given in ChEMBL document CHEMBL1201862, “PubChem BioAssay data set” (2004).
The source made the active and inactive calls.

Assays:
[1] = biological target: T1, Histone-lysine N-methyltransferase NSD2 (Homo sapiens, UniProt O96028); type: biochemical
T1 sequence (O96028 whole entry): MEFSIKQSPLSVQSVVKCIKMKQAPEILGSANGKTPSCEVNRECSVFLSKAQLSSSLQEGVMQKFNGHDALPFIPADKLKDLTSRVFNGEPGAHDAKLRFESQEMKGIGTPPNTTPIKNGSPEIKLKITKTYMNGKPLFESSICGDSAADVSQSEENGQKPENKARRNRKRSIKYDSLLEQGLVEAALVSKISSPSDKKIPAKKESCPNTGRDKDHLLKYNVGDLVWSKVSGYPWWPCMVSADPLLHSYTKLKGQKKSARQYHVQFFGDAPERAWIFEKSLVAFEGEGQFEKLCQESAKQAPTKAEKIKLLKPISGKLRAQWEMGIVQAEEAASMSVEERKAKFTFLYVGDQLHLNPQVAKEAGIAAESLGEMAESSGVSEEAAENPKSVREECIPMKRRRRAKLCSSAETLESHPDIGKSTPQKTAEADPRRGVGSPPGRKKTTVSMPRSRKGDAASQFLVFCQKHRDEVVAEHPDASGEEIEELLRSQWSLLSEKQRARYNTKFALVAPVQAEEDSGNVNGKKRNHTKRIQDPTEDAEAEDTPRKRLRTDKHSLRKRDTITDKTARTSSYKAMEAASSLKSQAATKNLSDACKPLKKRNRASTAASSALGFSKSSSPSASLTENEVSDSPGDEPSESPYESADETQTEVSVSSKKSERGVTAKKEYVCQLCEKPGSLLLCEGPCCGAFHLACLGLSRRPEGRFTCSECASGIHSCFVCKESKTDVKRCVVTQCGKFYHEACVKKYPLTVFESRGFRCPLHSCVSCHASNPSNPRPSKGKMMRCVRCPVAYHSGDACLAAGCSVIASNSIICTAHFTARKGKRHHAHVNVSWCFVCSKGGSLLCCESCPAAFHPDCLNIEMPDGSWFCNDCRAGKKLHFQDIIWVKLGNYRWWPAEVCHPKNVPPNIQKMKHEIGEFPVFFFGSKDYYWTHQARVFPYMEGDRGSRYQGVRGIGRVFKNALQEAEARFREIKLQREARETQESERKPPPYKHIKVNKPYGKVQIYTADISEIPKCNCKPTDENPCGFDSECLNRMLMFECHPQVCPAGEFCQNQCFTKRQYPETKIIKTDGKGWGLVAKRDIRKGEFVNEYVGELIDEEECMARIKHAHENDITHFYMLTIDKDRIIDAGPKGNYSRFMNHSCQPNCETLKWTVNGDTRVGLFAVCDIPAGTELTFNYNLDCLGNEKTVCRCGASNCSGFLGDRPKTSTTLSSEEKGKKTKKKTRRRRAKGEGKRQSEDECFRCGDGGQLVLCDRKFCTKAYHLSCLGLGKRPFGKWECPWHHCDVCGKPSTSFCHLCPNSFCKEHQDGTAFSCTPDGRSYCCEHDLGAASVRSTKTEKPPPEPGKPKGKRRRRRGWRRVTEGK

Troponin, cardiac muscle = Troponin, cardiac muscle (Homo sapiens, UniProt P19429+P45379+P63316); assay: compounds desensitizing RTF to calcium – biochemical, fluorescence, cardiac regulated thin filaments, triplicate IC50, dose response (AID 504742); type: protein-complex assay
[2] = biological target: Delta-type opioid receptor (Homo sapiens, UniProt P41143); assay: SAR Analysis of Antagonists of the DOR Receptor using an Image-Based Assay - Set 3. [Related pubchem assays (depositor defined):AID1777, AID1785]; type: functional;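 also: U2OS cells expressing DOR1 and beta-arrestin GFP stimulated with 100 nM SNC80; imaging of GFP-tagged beta-arrestin moving into spots after receptor activation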
Delta-type opioid receptor, sequence (P41143 whole entry): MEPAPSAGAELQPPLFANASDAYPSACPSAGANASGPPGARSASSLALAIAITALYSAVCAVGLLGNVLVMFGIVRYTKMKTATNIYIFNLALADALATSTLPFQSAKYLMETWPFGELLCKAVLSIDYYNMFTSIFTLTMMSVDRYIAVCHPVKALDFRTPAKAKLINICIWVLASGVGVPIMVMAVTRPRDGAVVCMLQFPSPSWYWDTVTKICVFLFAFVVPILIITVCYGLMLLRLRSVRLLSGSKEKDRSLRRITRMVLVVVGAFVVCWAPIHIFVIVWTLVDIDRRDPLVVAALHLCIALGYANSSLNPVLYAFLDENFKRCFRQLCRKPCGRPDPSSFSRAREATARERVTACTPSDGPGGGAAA

[3] = biological target: T2, Kappa-type opioid receptor (Homo sapiens, UniProt P41145); assay: SAR analysis of small molecule antagonists of the kappa opioid receptor via a luminescent beta-arrestin assay - Set 4. [Related pubchem assays (depositor defined):AID1777, AID1778, AID1785, AID1786, AID1966, AID2133, AID2136, AID2285]; type: functional
T2 sequence (P41145 whole entry): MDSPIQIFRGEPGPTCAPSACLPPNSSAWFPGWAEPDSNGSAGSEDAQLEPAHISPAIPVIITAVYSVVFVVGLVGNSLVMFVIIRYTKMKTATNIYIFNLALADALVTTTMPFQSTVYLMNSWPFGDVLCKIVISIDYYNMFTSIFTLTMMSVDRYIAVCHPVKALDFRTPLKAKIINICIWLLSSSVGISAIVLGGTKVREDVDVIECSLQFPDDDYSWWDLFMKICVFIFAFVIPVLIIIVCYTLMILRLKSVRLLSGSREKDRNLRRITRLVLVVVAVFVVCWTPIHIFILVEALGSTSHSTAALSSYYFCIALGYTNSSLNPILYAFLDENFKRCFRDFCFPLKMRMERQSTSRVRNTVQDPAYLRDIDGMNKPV

Mu-type opioid receptor = Mu-type opioid receptor (Homo sapiens, UniProt P35372); assay: SAR Analysis of Antagonists of the MOR Receptor using an Image-Based Assay - Set 3. [Related pubchem assays (depositor defined):AID1777, AID1785, AID1786, AID1966, AID2133, AID2136, AID2284, AID2285, AID2420]; type: functional
Mu-type opioid receptor, sequence (P35372 whole entry): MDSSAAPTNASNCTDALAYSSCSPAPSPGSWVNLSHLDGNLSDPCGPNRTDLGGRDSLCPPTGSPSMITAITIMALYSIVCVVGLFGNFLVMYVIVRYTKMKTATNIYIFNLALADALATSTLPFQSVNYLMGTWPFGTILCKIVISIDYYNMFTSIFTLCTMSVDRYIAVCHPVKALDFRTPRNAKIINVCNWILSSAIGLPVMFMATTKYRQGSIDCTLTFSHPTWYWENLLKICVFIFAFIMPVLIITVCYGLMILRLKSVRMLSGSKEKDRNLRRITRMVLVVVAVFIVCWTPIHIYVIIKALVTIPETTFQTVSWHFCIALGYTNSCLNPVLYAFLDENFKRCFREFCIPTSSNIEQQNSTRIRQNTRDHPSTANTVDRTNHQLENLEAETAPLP

[4] = biological target: T2, Kappa-type opioid receptor; assay: SAR analysis of Antagonists of the Kappa Opioid Receptor (KOR) using an Image-Based Assay - Set 4. [Related pubchem assays (depositor defined):AID1777, AID1785]; type: functional
[5] = biological target: T2, Kappa-type opioid receptor; assay: SAR analysis of small molecule antagonists of the kappa opioid receptor via a luminescent beta-arrestin assay - Set 6. [Related pubchem assays (depositor defined):AID1777, AID1778, AID1785, AID1786, AID1966, AID2133, AID2136, AID2285]; type: functional
Caspase-7 = Caspase-7 (Homo sapiens, UniProt P55210); assay: activation of caspase-7 zymogen – biochemical, absorbance, counter-screen for procaspase-3 activator project, dose response (AID 489013)
Caspase-7, sequence (P55210 24-198 limits assumed): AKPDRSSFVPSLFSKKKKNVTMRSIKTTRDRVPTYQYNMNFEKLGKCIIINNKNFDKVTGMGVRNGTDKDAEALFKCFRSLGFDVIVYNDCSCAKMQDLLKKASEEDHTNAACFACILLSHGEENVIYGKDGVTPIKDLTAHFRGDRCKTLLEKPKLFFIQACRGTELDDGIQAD
Caspase-7, sequence (P55210 207-303 limits assumed): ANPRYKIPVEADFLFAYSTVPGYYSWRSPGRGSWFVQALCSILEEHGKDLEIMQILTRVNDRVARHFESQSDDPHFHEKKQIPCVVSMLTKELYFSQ

Caspase-3 = biological target: T3, Caspase-3 (Homo sapiens, UniProt P42574); assay: activation of caspase-3 zymogen – biochemical, absorbance, dose response (AID 489014)
T3 sequence (P42574 whole entry): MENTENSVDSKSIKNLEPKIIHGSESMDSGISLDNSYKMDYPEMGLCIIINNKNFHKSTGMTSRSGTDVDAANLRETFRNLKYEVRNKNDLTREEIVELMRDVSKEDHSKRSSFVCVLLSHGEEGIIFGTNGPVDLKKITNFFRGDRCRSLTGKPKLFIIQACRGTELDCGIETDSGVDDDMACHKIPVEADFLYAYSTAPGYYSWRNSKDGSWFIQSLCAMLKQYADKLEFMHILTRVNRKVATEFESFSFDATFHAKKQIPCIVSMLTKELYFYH

[6] = tested on: Streptococcus sp. 'group A'; assay: Streptococcus pyogenes SK(-)GAS viability under kanamycin – luminescence, BacTiterGlo, confirmation, counter-screen for streptokinase expression inhibitor project, dose response (AID 1900); type: functional, organism-based
[7] = biological target: DNA dC->dU-editing enzyme APOBEC-3G (Homo sapiens, UniProt Q9HC16); assay: Dose Response confirmation of small molecule APOBEC3G DNA Deaminase Inhibitors via a fluorescence-based single-stranded DNA deaminase assay. [Related pubchem assays (depositor defined):AID493012, AID493028]; type: functional
DNA dC->dU-editing enzyme APOBEC-3G, sequence (Q9HC16 whole entry): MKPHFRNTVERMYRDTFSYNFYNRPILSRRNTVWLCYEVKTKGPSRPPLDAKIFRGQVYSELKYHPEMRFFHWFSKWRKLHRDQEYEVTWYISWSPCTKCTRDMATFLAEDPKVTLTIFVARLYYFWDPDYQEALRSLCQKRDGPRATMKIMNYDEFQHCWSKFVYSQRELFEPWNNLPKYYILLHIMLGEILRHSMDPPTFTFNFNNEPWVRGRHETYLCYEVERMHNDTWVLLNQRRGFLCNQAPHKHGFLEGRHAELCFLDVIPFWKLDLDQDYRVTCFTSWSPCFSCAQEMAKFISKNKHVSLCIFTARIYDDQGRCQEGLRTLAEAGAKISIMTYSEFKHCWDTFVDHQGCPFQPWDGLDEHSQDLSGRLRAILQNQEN

Streptococcus = assay: GAS UMAA2166 growth inhibition – luminescence, BacTiterGlo, counter-screen for streptokinase expression inhibitor project, dose response (AID 1915); type: functional, organism-based;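 also: potency for reduction of bacterial viability or growth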
[8] = biological target: DNA dC->dU-editing enzyme APOBEC-3A (Homo sapiens, UniProt P31941); assay: A3A deaminase inhibition for selectivity – biochemical, dose response (AID 504722); type: functional
DNA dC->dU-editing enzyme APOBEC-3A, sequence (P31941 whole entry): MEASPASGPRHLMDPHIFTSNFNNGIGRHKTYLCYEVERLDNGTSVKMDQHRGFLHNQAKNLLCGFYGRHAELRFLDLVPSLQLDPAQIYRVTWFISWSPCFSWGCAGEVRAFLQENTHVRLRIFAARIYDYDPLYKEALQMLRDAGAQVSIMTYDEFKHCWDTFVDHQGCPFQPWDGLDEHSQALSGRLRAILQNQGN

Streptokinase A = biological target: T4, Streptokinase A (Streptococcus pyogenes serotype M1, UniProt P10520); assay: viability-normalized secreted streptokinase activity reduction – plasminogen activation absorbance, OD405, dose response (AID 1914); type: functional, Streptococcus pyogenes M1 GAS;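 also: secreted streptokinase activity via plasminogen activation per viability signal from cell pellet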
T4 sequence (P10520 whole entry): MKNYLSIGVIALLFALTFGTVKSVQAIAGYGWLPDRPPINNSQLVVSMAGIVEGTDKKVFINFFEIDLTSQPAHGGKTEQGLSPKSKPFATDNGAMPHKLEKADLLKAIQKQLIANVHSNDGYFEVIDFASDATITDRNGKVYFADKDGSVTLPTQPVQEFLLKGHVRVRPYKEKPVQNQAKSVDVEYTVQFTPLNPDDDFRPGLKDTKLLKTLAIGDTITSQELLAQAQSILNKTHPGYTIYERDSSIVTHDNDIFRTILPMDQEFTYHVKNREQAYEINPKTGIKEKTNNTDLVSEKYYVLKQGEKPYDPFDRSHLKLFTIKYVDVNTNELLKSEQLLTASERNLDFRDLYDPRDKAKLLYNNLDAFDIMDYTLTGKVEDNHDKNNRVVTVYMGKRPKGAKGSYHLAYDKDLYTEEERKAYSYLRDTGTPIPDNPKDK

[9] = biological target: T5, Apoptotic protease-activating factor 1 (Homo sapiens, UniProt O14727); type: functional
T5 sequence (O14727 whole entry): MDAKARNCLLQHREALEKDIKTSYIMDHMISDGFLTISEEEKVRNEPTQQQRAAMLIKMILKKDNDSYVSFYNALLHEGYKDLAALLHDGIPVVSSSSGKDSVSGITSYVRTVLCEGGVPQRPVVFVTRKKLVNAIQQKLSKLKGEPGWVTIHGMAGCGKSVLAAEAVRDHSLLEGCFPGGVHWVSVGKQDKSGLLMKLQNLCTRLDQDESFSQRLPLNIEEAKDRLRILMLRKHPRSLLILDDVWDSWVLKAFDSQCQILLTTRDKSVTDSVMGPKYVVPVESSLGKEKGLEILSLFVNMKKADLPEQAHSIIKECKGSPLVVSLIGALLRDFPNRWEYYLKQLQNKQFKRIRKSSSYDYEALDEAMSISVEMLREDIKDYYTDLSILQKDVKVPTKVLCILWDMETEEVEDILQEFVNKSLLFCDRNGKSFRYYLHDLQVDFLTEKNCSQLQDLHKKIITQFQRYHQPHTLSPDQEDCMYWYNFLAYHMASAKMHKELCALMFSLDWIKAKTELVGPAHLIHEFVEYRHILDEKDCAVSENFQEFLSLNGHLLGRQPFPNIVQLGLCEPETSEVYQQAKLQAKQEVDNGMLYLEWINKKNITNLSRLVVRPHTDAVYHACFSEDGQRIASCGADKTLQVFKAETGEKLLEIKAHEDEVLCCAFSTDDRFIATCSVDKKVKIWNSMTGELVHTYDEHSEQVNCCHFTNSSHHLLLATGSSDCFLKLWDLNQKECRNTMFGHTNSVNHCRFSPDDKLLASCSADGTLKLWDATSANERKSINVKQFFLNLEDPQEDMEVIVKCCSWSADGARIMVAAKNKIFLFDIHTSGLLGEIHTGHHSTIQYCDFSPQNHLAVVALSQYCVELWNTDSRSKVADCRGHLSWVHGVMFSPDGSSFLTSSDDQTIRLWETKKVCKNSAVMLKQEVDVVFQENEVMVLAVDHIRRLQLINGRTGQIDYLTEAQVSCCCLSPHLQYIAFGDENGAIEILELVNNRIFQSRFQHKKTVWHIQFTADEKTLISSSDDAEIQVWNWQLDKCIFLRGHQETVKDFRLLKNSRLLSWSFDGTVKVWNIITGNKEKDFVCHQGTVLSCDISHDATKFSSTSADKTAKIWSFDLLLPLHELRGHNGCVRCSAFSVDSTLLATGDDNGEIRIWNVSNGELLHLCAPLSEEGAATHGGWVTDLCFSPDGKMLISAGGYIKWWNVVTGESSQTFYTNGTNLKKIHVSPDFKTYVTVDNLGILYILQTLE

[10] = biological target: 1-phosphatidylinositol 4,5-bisphosphate phosphodiesterase gamma-1 (Homo sapiens, UniProt P19174); assay: Counterscreen for inhibitors of phospholipase C isozymes (PLC-B3): Fluorescence-based biochemical high throughput dose response assay to identify inhibitors of phospholipase C isozymes (PLC-gamma1).
1-phosphatidylinositol 4,5-bisphosphate phosphodiesterase gamma-1, sequence (P19174 whole entry): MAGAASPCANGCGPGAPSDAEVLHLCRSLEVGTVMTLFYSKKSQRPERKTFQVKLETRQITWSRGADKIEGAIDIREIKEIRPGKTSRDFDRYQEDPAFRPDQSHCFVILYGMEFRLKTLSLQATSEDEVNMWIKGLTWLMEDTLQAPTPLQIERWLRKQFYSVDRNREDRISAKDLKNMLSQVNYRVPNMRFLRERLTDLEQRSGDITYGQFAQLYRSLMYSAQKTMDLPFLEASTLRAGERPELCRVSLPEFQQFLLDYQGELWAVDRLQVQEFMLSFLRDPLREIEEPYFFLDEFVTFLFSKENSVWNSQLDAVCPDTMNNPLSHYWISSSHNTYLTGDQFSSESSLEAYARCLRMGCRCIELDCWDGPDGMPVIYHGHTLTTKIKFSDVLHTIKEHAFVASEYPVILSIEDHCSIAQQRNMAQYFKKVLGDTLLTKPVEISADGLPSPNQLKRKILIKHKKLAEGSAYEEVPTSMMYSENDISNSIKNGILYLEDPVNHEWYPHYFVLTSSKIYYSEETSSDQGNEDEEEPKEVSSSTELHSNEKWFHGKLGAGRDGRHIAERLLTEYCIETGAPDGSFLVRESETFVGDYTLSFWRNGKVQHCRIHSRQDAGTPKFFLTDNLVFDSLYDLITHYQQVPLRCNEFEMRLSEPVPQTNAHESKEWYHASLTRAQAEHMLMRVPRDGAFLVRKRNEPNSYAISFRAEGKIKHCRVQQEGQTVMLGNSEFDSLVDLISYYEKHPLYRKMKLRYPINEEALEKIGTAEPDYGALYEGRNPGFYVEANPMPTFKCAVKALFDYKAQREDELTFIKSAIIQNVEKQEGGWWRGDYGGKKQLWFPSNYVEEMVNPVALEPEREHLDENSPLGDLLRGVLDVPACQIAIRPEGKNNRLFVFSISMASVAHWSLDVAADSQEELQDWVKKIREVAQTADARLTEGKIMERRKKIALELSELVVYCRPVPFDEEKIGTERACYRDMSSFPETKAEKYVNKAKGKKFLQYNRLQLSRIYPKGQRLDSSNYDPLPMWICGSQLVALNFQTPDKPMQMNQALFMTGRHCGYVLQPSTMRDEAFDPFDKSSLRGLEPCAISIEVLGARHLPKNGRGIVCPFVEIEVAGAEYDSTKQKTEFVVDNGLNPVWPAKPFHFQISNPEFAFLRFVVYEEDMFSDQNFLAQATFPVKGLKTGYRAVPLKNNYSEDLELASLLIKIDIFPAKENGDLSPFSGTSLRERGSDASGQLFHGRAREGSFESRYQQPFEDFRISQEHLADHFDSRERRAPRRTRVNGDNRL

[11] = biological target: C-C chemokine receptor type 6 (Homo sapiens, UniProt P51684); assay: antagonism of CCR6 beta-arrestin recruitment – cell-based, luminescent beta-arrestin readout, dose response (AID 504728); type: functional
C-C chemokine receptor type 6, sequence (P51684 whole entry): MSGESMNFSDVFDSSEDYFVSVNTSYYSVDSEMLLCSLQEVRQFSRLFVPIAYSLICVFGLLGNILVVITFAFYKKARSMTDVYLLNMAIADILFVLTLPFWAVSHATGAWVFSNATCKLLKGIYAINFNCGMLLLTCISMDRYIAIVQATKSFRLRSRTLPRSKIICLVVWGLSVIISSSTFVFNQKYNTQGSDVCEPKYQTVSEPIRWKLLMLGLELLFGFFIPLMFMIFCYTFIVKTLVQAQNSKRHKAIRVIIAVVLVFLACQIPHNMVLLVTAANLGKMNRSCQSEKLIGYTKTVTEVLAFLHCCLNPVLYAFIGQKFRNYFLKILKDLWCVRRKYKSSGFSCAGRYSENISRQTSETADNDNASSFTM

Beta-galactosidase = Beta-galactosidase (Escherichia coli, UniProt Q8VNN2); assay: detection-enzyme interference by beta-gal modulators – biochemical, E. coli enzyme, set 3, artefact control for CCR6 antagonist project, dose response (AID 504712); type: functional
[12] = viability loss in THP-1 monocytes – THP-1 cells, cytotoxicity control for Vif-APOBEC3G degradation inhibitor project, dose response (AID 1117359); type: functional; conditions: THP-1
[13] = biological target: 1-phosphatidylinositol 4,5-bisphosphate phosphodiesterase beta-3 (Homo sapiens, UniProt Q01970); assay: Fluorescence-based biochemical high throughput dose response assay to identify inhibitors of phospholipase C isozymes (PLC-B3).
1-phosphatidylinositol 4,5-bisphosphate phosphodiesterase beta-3, sequence (Q01970 whole entry): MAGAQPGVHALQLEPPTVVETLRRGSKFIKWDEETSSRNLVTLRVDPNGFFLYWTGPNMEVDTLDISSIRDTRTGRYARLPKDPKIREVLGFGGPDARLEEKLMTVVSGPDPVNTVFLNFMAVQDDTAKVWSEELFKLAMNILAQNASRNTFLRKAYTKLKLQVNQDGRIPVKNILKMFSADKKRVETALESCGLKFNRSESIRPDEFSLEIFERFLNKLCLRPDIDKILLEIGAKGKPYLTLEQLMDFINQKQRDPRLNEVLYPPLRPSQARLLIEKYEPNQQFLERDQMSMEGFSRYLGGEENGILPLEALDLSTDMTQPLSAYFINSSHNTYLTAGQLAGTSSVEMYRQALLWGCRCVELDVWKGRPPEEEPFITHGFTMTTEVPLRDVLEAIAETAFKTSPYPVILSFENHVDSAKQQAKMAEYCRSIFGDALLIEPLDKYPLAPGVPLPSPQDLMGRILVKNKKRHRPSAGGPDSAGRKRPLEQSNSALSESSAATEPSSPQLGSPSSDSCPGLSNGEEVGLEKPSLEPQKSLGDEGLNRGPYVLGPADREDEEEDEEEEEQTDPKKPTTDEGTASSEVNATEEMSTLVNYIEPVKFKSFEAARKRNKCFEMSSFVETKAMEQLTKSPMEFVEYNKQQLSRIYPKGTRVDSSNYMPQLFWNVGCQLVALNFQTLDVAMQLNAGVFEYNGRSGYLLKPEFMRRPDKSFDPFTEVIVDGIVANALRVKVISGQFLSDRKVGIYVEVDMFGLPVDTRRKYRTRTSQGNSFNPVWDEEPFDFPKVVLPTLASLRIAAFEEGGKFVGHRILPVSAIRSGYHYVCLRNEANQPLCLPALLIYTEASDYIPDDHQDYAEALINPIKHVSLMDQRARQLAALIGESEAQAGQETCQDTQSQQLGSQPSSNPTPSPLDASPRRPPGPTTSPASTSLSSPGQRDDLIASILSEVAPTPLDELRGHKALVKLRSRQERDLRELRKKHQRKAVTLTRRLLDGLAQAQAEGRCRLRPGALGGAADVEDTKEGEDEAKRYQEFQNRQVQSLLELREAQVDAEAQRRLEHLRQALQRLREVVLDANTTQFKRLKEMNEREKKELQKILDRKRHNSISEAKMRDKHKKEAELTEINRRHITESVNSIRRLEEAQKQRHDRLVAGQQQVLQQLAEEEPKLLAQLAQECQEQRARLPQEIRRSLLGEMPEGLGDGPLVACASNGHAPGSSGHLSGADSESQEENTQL

## CCOc1ccc2nc3cc(N=Nc4ccc(N)nc4N)ccc3c(N)c2c1
[1]
  AC50: > 20 µM (inactive)
Troponin, cardiac muscle
  IC50: 12.7 µM (inactive)

## Cc1ccc(S(=O)(=O)NCc2ccc(C(=O)NCCN(Cc3ccccc3)C(C)(C)C)cc2)cc1
[2]
  IC50: > 32 µM (inactive)
[3]
  IC50: 76.3 nM (active)
Mu-type opioid receptor
  IC50: 1.39 µM (active)
[4]
  IC50: 28.7 nM (active)
[5]
  IC50: 53.5 nM (active)

## Cc1ccc(C2Nc3ccc4ccccc4c3C3=C2C(=O)CC(C)(C)C3)o1 (stereo not given)
Caspase-7
  EC50: > 85.3 µM (inactive)
Caspase-3
  EC50: > 85.3 µM (inactive)

## COc1ccc(OC)c(/C=N/n2c(S)nnc2-c2[nH]nc3c2CCC3)c1
[6]
  EC50: > 150 µM (not active)
[7]
  IC50: 2.88 µM (active)
Streptococcus
  EC50: > 150 µM (not active)
[8]
  IC50: > 100 µM (inactive)
Streptokinase A
  EC50: 18.9 µM (inconclusive)

## FC(F)(F)C1=Nc2cccc3cccc(c23)N1
[9]
  IC50: 12.1 µM (active)
[10]
  IC50: 56.6 µM (inactive)
[11]
  IC50: 23.8 µM (inactive)
Beta-galactosidase
  IC50: > 66.6 µM (inactive)
[12]
  CC50: 11.5 µM (active)
[13]
  IC50: 102 µM (inactive)
